Experimental data: US10226509B2, “Lymphangiogenesis inhibitors for cancer and for graft survival” (TUFTS UNIVERSITY, priority 2014, dated 2019)
“Also recorded” adds a separate entry of the source.

Tests used:
LEC spheroids = assay: LEC sprouting assay: stimulation by galectins alone; assay type: cell-based, human
Experimental: (§1) LEC spheroids were generated by seeding primary LECs at passage 4 or 5 in each well of 384-well hanging-drop plates (3D Biomatrix) in complete EGM-2 MV medium containing 0.25% methyl cellulose according to the manufacturer's instructions (750 cells/well). After 18 hours, LEC spheroids were collected, resuspended in serum-free EBM-2 basal medium, and mixed with collagen solution (PureCol collagen, Advanced BioMatrix, 2.2 mg/ml in M199 medium, pH adjusted to 7.4 with NaHCO3 and NaOH). Aliquots of the LEC spheroid/collagen mixture (250 μl/well of 48-well plate) were incubated in the presence or absence of various test agents for 24 hr. At the end of the incubation period, spheroids were stained with Calcein AM (Invitrogen, 1 μg/mL, 37° C., and 30 min). Fluorescent images were acquired using the EVOS FL cell imaging system, pixels were inverted for better visualization and cumulative length of each sprout was calculated. Results were expressed as fold change compared to corresponding controls. It was observed that sprout lengths vary from passages to passages. Test agents used included thiodigalactoside (10 to 50 mM, Carbosynth), 3′-sialyl lactose (2 to 10 mM, Carbosynth), 6′-sialyl lactose (2 to 10 mM, Carbosynth), LY294002 (20 μM, Abeam), U0126 (20 μM, Abeam), PD0325901 (1 μM, Selleckchem), human VEGFR-3-Fc chimera (10 μg/ml, R&D), human VEGFR-2-Fc chimera (10 μg/ml, R&D), Avastin (10 μg/ml, bevacizumab, Genentech/Roche), human control IgG (10 μg/ml, Southern Biotech), anti-human podoplanin functional grade antibody (10 μg/ml, eBioscience), and rat IgG2a κ isotype control functional grade antibody (10 μg/ml, eBioscience).
To assess the effect of galectins on LEC sprouting, LEC spheroids were embedded in a collagen matrix and incubated with media containing various test agents. After 24 hours, the cumulative length of the sprouts for each spheroid was quantified by ImageJ. […] Multiple approaches were used to determine whether the stimulatory effect of Gal-8 on LEC sprouting was carbohydrate-dependent.

mouse corneas = assay: Corneal mouse micropocket lymphangiogenesis assay; assay type: in vivo; conditions: for mean lymphatic vessel areas: 160 ng pellet, seven days
Experimental: The corneal micropocket lymphangiogenesis assay was performed using implants containing a test agent, hydron (polyhydroxylmethylmethacrylate), and sucralfate (Cao, R., et al. 2011. Nat Protoc 6:817-826; Rogers, M. S., et al. 2007. Nat Protoc 2:2545-2550). Test agents included full-length Gal-8 (40-320 ng/pellet) and VEGF-C (160 ng/pellet). Implants containing hydron and sucralfate alone served as negative controls. The mice were anesthetized by intraperitoneal injection of a mixture of ketamine (90-120 mg/kg) and xylazine (10 mg/kg). The eyes were topically anesthetized with proparacaine and were gently proptosed (forwardly displaced) with forceps. Using a corneal blade and a stereoscope, intrastromal linear keratotomy was performed about 2 mm from the limbus. Using a von Graefe knife (Miltex), a pocket was extended towards the limbus, and the pellet was maneuvered into the pocket. The wound was coated with a veterinary ophthalmic ointment (Akorn) to prevent infection. Mouse corneas were harvested 7 days after pellet implantation, fixed in 4% paraformaldehyde/PBS (1 hour at 4° C.), washed with PBS, and fixed again in iced acetone (15 min at −20° C.). To quantitate the extent of lymphangiogenesis in Prox-1-EGFP reporter mice, flat mounts of the dissected corneas were evaluated by fluorescence microscopy. Fluorescent images were acquired by EVOS FL cell imaging system (Invitrogen), and vessel areas were calculated using the formula (Rogers, M. S., et al. 2007. Nat Protoc 2:2545-2550): vessel area=pellet distance×vessel length×clock hours×[…]. To quantitate the extent of lymphangiogenesis in WT and PDPN-deficient mice, corneas were stained with eFluor 570-anti-mouse LYVE-1 (clone ALY7, eBioScience, and 1:75) in 10% goat serum/0.2% Triton X-100/PBS overnight, 4° C. After several washes with 0.2% Triton X-100/PBS, the corneas were flattened and mounted with VECTASHIELD mounting medium (Vector Laboratories) and evaluated by fluorescence microscopy. In some examples, for comparisons, corneas were stained with Alexa Fluor® 488-anti-mouse CD31 (clone MEC13.3, 1:100, BioLegend) to visualize blood vessels.

VEGFR-3 = assay: Cell surface expression of VEGFR-3 by flow cytometry; assay type: cell-based, human; conditions: Gal-8 0.2 μM or VEGF-C 50 ng/ml
Experimental: Primary LECs were serum-starved overnight in basal EBM-2 medium. The cells were incubated with or without VEGF-C (50 ng/ml, PeproTech) or Gal-8 (0.2 μM) in serum-free EBM-2 medium for 10 and 30 min. At the end of the incubation period, cells were lifted with StemPro® Accutase® cell dissociation reagent (Invitrogen), washed with PBS and fixed with 4% paraformaldehyde/PBS on ice for 10 min, and were then stained using rat anti-human PDPN (1:500, BioLegend) and mouse anti-human VEGFR-3 (clone 9D9F9) (1:100, BioLegend) primary antibodies in cell staining buffer (BioLegend, 45 min on ice) and Alexa Fluor® 488 donkey anti-rat and Alexa Fluor® 647 anti-mouse secondary antibodies (1:1000, Invitrogen, 30 min on ice). For negative control, the primary antibodies were omitted. The stained cells were fixed with 2% paraformaldehyde/PBS, analyzed with BD FACSCalibur, and the mean fluorescence intensity of VEGFR-3 and PDPN were quantified with the FlowJo software (version 9.5.2).

[1] = system: VEGF-C-induced LEC sprouting; assay: LEC sprouting assay: VEGF-C-induced sprouting; assay type: cell-based, human
Experimental: as §1
In this assay, the LEC spheroids were treated with VEGF-C (50 ng/ml) in the presence or absence of 0.75 μM of Gal-8 for 24 hours, and then accumulated sprout lengths were quantified. […] Synergistic effect of Gal-8 on VEGF-C-induced LEC sprouting was dose-dependent. […] At concentrations >0.5 μM Gal-8, there was no further increase in the degree of VEGF-C-induced lymphangiogenesis (FIG. 4C).
To further characterize the role of carbohydrate-mediated recognition in VEGF-C-induced lymphangiogenesis, LEC spheroids were stimulated with VEGF-C (50 ng/ml) in the presence or absence of three different galectin inhibitors. […] Therefore, the data establishes the critical role of Gal-8-mediated carbohydrate-mediated recognition in VEGF-C-induced lymphangiogenesis.

For “Gal-8: recombinant galectin-8, tandem-repeat type galectin with two different CRDs”, the “promotion of LEC sprouting by the agent alone (in words)” value (LEC spheroids; 24 hours) was “concentration-dependent and was comparable to that of VEGF-C; also recorded: promotes LEC sprouting”, the “Hill's coefficient (nH) of galectin-8-mediated LEC sprouting” value (LEC spheroids; dose-response curve) was 3.7 and the EC50 (LEC spheroids; sprouting activity at 0.75 μM set at 100%, read-out: EC50 of galectin-8-mediated LEC sprouting) was 520 nM. The “mean lymphatic vessel areas” value (mouse corneas; PDPN KO mice) was 0.28 mm^2, the “mean lymphatic vessel areas” value (mouse corneas; WT mice) was 0.78 mm^2 and the “lymphatic vessel growth, times higher than either VEGF-C pellet or Gal-8 pellet alone” value (mouse corneas; corneas implanted with both VEGF-C and Gal-8 pellets) was 2.2 times. The “lymphangiogenesis induced by pellet in cornea (in words)” value (mouse corneas; one week after implantation, Gal-8 40-320 ng/pellet, VEGF-C 160 ng, WT or Prox1-EGFP mice) was “increased in a dose-dependent manner”, the “effect of Gal-8 pellet on VEGF-C-induced lymphangiogenesis in vivo (in words)” value (mouse corneas; two separate pellets (VEGF-C and Gal-8), Prox1-EGFP reporter mice, one week) was “augmented VEGF-C-induced lymphangiogenesis” and the “decrease of cell surface expression of VEGFR-3” value (VEGFR-3) was “about 10%”. The “VEGF-C-induced LEC sprouting, times higher than VEGF-C alone or Gal-8 alone” value ([1]; VEGF-C 50 ng/ml plus 0.75 μM of Gal-8) was 5 times and the “effect on VEGF-C-induced LEC sprouting (in words)” value ([1]; VEGF-C 50 ng/ml, 24 h) was “markedly enhanced”.
